Patent US20130150399A1, “INHIBITORS OF THE UNFOLDED PROTEIN RESPONSE AND METHODS FOR THEIR USE” (The Board of Trustees of the Leland Stanford Junior …, priority 2006, published 2013)

What was measured:
IRE1α = assay: Western immunoblot of total IRE1α, HT1080 cells; assay type: cell-based, human; details: 2.5 μM, 16 hours
Description: Cells (2×10^6) were cultured in 10-cm dishes, collected using a cell scraper at 4° C., and lysed by addition of 150 μl cell lysis buffer [50 mM Tris pH 7.4, 150 mM NaCl, 10% glycerol, 0.5% Triton X-100. 0.5% NP-40, 2 mM Na3VO4, 20 mM beta-glycerophosphate, 10 mM NaF, 1 mM DTT, 1 mM PMSF). Lysates were centrifuged for 5 min at 10,000×g, and proteins (˜40 μg) were resolved by SDS-PAGE followed by semi-dry transfer to nitrocellulose membranes. Membranes were blocked in TBS-5% milk supplemented with 0.1% Tween-20. The blots were then probed overnight with relevant antibodies, washed, and incubated for 2 hours with species-specific secondary antibodies conjugated to horseradish peroxidase. After washing in block solution, immunoreactive material was detected by enhanced chemiluminescence (SuperSignal West Dura Extended, Pierce, Inc., Rockville, Ill.).
HT1080 cells were exposed to DMSO vehicle (lane 1), irestatin 9389 (2.5 μM; lane 2) for 16 hours or Tm (5 μg/ml; lane 3) for 8 hours. Following treatments, cells were harvested, lysed, and analyzed by immunoblotting using anti-Grp78 antibody (top) or anti-actin (bottom) as a loading control. […] Cell lysates were analyzed by Western immunoblotting using anti-IRE1α (bottom) or anti-phospho-IRE1α antibodies (top). […] Lysates were analyzed by Western blot using antisera specific for phospho-JNK1 (top) or total JNK1 (bottom). […]

His6-IRE1α-cyto = target: T1, His6-IRE1α-cyto (Homo sapiens, UniProt O75460); assay: IRE1α endonuclease (in vitro ribonuclease) assay; assay type: biochemical; details: 2.5 μM
T1 construct: purified the full cytosolic portion of IRE1α (His6-IRE1α-cyto) containing both kinase and endonuclease domains; His6; made in house
Description: The in vitro ribonuclease assays were carried out using purified IRE1α-cyto essentially as described. Gonzalez and Walter, Methods Mol Biol 160: 25-36 (2001); Gonzalez et al., Embo J 18: 3119-3132 (1999). For each reaction, 5 μg purified IRE1α-cyto was incubated with 300 ng of fluorescein-labeled RNA stem-loop substrate at 37° C. in a total volume of 300 μl. Aliquots (50 μl) were withdrawn at the indicated times and mixed with an equal volume of stop solution. Id. Reactions were analyzed by SDS-PAGE using 10-20% acrylamide gradient gels. The sequence for the hXBP-1 3′ RNA stem-loop substrate is as follows: • 5′[…] 3′ (SEQ ID NO: 8). […]
HT1080 cells were exposed to DMSO vehicle (lane 1), irestatin 9389 (2.5 μM; lane 2) for 16 hours or Tm (5 μg/ml; lane 3) for 8 hours. Following treatments, cells were harvested, lysed, and analyzed by immunoblotting using anti-Grp78 antibody (top) or anti-actin (bottom) as a loading control. […] Cell lysates were analyzed by Western immunoblotting using anti-IRE1α (bottom) or anti-phospho-IRE1α antibodies (top). […] Lysates were analyzed by Western blot using antisera specific for phospho-JNK1 (top) or total JNK1 (bottom). […] F. Quantification of RNA cleavage kinetics. […] Samples were analyzed as in (E).
Next we determined whether irestatin 9389 inhibited the endonuclease function of IRE1α. […]

T1 sequence (O75460 465-977 limits assumed): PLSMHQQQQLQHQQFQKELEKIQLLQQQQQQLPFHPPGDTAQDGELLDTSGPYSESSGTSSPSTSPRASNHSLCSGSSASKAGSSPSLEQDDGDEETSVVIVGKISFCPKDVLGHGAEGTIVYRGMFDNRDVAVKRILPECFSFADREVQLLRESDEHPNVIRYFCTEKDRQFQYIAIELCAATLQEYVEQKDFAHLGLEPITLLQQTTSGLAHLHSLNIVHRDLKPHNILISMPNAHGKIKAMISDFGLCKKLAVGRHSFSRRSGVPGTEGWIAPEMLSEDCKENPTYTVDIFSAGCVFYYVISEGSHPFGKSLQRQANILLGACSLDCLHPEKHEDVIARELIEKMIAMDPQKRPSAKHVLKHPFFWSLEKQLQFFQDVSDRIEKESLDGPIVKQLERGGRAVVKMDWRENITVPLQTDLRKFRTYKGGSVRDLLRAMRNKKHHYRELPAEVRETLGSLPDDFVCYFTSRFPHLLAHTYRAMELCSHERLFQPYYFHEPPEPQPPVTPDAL

In the case of Cc1csc(NC(=O)CSc2nc3c(c(C(F)(F)F)c2C#N)CCC3)n1 [Compound 9389], the “total level of IRE1α” value (IRE1α) is reported as “no significant changes in the total level of IRE1α” and the “cleavage of XBP-1 target RNA by IRE1α endonuclease” value (His6-IRE1α-cyto) is reported as “strongly inhibited cleavage”.
